Our source for the IC50 and GI50 values is patent publication US11459338B2, “Heterocyclic compounds as PRMT5 inhibitors” (JUBILANT EPISCRIBE LLC, priority 2018, dated 2022).

The structures appear in SMILES notation. pIC50: −log10 of the molar value.

The target in experiment [1] is T1, PRMT5/MEP50 (Homo sapiens, UniProt O14744).
T1 construct: Full-length human PRMT5 (NP_006100)
Description: PRMT5/MEP50 enzyme assay on peptide substrates (3H-SAM Flashplate). The following applies: PRMT5/MEP50 10 nM, H4 1-15aa peptide 100 nM, 3H-SAM 1 μM. Format: biochemical. The source says: General materials like S-adenocylmethionine (SAM), S-adenosylhomocysteine (SAH), Tris-HCl, DTT, […] (BSA) and Tween-20 were purchased from Sigma-Aldrich. 3H-SAM and 384-well streptavidin Flashplates were purchased from Perkin Elmer. Substrates that were used were Peptide representative of human Histone 4 residues 1-15 which was purchased from Rockland antibodies and assays.
PRMT5/MEP50 Enzyme assay on Peptide Substrates.
The assays were all performed in a buffer consisting of 50 mMTris-HCl, pH 8, 1 mM DTT, 0.01% BSA, 0.01% Tween-20, prepared on the day of use. Test compounds were diluted 3-fold in assay buffer (final DMSO concentration of 1%) and added into a 384-well OptiPlate (PerkinElmer, #6007290). A cocktail (10 μL) of PRMT5/MEP50 enzyme and the peptide was added to the wells. The compounds were allowed to incubate with PRMT5/MEP50 for 30 min at room temperature, then 5 μL of ^3H-SAM was added to initiate the reaction. The final concentrations of the components were as follows: PRMT5/MEP50-10 nM, H4, 1-15aa peptide-100 nM, ^3H-SAM-1 μM. The assays were stopped by the addition of 1 mM SAH. 25 μL of the reaction from the 384-well OptiPlate was then transferred to a 384-well Flashplate and the biotinylated peptides were allowed to bind to the streptavidin surface for at least 1 h, before being washed twice with 50 mMTris-HCl, pH 8, 0.1% Tween-20. The plates were then read in a PerkinElmer Topcount plate reader to measure the quantity of ^3H-labeled peptide bound to the Flashplate surface measured as disintegrations per minute (dpm), also referred to as counts per minute (cpm).
The IC50 values were calculated using a 4-parameter variable slope fit algorithm (cpm—counts per minute, cmpd—signal in assay well, and cpmmax and cpmmin mare the respective minimum and maximum signal controls).

In experiment [2] the test system is Z-138 cells. Kind of experiment: Z-138 long term proliferation assay (Cell Titer Glo). Type of experiment: cell-based. The following applies: Homo sapiens, 192 h; Z-138 cells, cell viability, day 8; read-out: PRMT5 Z138 GI50 Day 8 μM. The protocol:
A compound source plate was prepared by performing ten-point 3-fold dilution in DMSO, such that the final top concentration of the compound was 10 μM, and DMSO was 0.3%. The total volume of compounds added was 20 μL. The cells were incubated for 96 h at 37° C., 5% CO2. […] The cells were re-treated with the compounds and incubated for an additional four days. Cell viability was measured on both day 4 and day 8, by adding 25 μL of Cell Titer Glo reagent to an equal volume of cell suspension. Luminescence was read on a PerkinElmer Victor3 multiplate reader. The concentration of compound inhibiting cell viability by 50% was determined using a 4-parameter, variable slope fit of the normalized dose response curves.
For orientation: ATP-based viability assays read luminescence as a measure of living cells.

T1 sequence (O14744 whole entry): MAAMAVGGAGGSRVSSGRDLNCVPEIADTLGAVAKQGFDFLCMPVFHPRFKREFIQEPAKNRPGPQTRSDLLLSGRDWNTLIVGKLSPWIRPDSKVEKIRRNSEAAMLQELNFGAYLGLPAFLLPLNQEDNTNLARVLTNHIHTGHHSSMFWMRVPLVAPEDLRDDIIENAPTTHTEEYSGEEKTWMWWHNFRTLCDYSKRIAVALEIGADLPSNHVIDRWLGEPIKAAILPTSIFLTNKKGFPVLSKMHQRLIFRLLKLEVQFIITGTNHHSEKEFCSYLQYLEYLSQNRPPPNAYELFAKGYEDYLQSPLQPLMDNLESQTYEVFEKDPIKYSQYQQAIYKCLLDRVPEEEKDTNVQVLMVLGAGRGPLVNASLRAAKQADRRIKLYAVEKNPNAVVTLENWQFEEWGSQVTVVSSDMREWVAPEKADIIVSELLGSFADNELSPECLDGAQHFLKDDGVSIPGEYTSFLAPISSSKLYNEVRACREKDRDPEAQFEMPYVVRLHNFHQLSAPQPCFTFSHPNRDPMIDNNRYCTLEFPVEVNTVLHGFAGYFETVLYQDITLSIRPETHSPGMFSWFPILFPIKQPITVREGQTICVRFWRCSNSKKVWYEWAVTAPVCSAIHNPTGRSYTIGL
T1 sequence (Q9BQA1 whole entry partner): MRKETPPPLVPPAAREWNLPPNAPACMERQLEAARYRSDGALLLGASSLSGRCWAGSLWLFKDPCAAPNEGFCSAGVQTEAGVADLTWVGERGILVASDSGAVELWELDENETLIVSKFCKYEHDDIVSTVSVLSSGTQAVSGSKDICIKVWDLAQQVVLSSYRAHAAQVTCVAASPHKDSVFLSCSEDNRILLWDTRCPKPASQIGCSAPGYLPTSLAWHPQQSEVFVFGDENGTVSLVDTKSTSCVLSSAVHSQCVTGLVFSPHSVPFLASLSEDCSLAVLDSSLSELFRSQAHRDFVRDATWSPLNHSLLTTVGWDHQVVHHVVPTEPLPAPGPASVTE

In experiment [1], `CC(=O)N1CCC(C2CCc3nc(C(=O)NC[C@H](O)CN4CCc5ccccc5C4)cn3C2)CC1` (single isomer, unassigned) [Example 118A] showed a pIC50 of 6.00 to 8.00. In experiment [2], the GI50 lay within 0.01 to 1 µM.

With `O=C(NC[C@H](O)CN1CCc2ccccc2C1)c1cn2cc(-c3cnn(C4COC4)c3)ccc2n1` [Example 22, (S)—N-(3-(3,4-dihydroisoquinolin-2(1H)-yl)-2-hydroxypropyl)-6-(1-(oxetan-3-yl)-1H-pyrazol-4-yl)imidazo[1,2-a]pyridine-2-carboxamide], in experiment [1], the pIC50 is 6.00 to 8.00. In experiment [2], the GI50 is 0.01 to 1 µM.

`CC(C)c1nc(-c2ccc3nc(C(=O)NC[C@H](O)CN4CCc5ccccc5C4)cn3c2)no1` [Example 24, (S)—N-(3-(3,4-dihydroisoquinolin-2(1H)-yl)-2-hydroxypropyl)-6-(5-isopropyl-1,2,4-oxadiazol-3-yl)imidazo[1,2-a]pyridine-2-carboxamide]: in experiment [1], the pIC50 is 6.00 to 8.00. The GI50 in experiment [2] lay within 0.01 to 1 µM.

`O=C(NC[C@H](O)CN1CCc2ccccc2C1)c1cn2cc(-c3noc(C4CC4)n3)ccc2n1` [Example 25, (S)-6-(5-cyclopropyl-1,2,4-oxadiazol-3-yl)-N-(3-(3,4-dihydroisoquinolin-2(1H)-yl)-2-hydroxypropyl)imidazo[1,2-a]pyridine-2-carboxamide]: the pIC50 in experiment [1] is 6.00 to 8.00. Further, the GI50 in experiment [2] lay in the range of 0.01 to 1 µM.

`O=C(NC[C@H](O)CN1CCc2ccccc2C1)c1cn2cc(C3CCOCC3)ccc2n1` [Example 26, (S)—N-(3-(3,4-dihydroisoquinolin-2(1H)-yl)-2-hydroxypropyl)-6-(tetrahydro-2H-pyran-4-yl)imidazo[1,2-a]pyridine-2-carboxamide]: the pIC50 in experiment [1] was 6.00 to 8.00. The GI50 in experiment [2] fell in the range of 0.01 to 1 µM.

In the case of `CC(=O)N1CCC(c2ccc3nc(C(=O)NC[C@H](O)CN4CCc5ccccc5C4)cn3c2)CC1` [Example 27, (S)-6-(1-acetylpiperidin-4-yl)-N-(3-(3,4-dihydroisoquinolin-2(1H)-yl)-2-hydroxypropyl)imidazo[1,2-a]pyridine-2-carboxamide], the pIC50 in experiment [1] was 6.00 to 8.00. Further, the GI50 in experiment [2] was in the range of 0.01 to 1 µM.

`Cc1ncc(-c2ccc3nc(C(=O)NC[C@H](O)CN4CCc5ccccc5C4)cn3c2)cn1` [Example 28, (S)—N-(3-(3,4-dihydroisoquinolin-2(1H)-yl)-2-hydroxypropyl)-6-(2-methylpyrimidin-5-yl)imidazo[1,2-a]pyridine-2-carboxamide] had a pIC50 in experiment [1] of 6.00 to 8.00. For the same molecule, the GI50 in experiment [2] lay in the range of 0.01 to 1 µM.

In experiment [1], `Cc1ccc(-c2ccc3nc(C(=O)NC[C@H](O)CN4CCc5ccccc5C4)cn3c2)cn1` [Example 29, (S)—N-(3-(3,4-dihydroisoquinolin-2(1H)-yl)-2-hydroxypropyl)-6-(6-methylpyridin-3-yl)imidazo[1,2-a]pyridine-2-carboxamide] showed a pIC50 of 6.00 to 8.00. Further, in experiment [2], the concentration for 50% growth inhibition (GI50) was 0.01 to 1 µM.

`Cc1ccc(-c2ccc3nc(C(=O)NC[C@H](O)CN4CCc5ccccc5C4)cn3c2)nn1` [Example 30, (S)—N-(3-(3,4-dihydroisoquinolin-2(1H)-yl)-2-hydroxypropyl)-6-(6-methylpyridazin-3-yl)imidazo[1,2-a]pyridine-2-carboxamide]: in experiment [1], the pIC50 is 6.00 to 8.00. In experiment [2], the GI50 lay within 0.01 to 1 µM.

The molecule `Cc1ncc(-c2ccc3nc(C(=O)NC[C@H](O)CN4CCc5ccccc5C4)cn3c2)s1` [Example 31, (S)—N-(3-(3,4-dihydroisoquinolin-2(1H)-yl)-2-hydroxypropyl)-6-(2-methylthiazol-5-yl)imidazo[1,2-a]pyridine-2-carboxamide] gave a pIC50 in experiment [1] of 6.00 to 8.00. Moreover, the GI50 in experiment [2] fell in the range of 0.01 to 1 µM.

As to `Cc1nc(-c2ccc3nc(C(=O)NC[C@H](O)CN4CCc5ccccc5C4)cn3c2)sc1C` [Example 32, (S)—N-(3-(3,4-dihydroisoquinolin-2(1H)-yl)-2-hydroxypropyl)-6-(4,5-dimethylthiazol-2-yl)imidazo[1,2-a]pyridine-2-carboxamide], the pIC50 in experiment [1] is 6.00 to 8.00. The GI50 in experiment [2] lay within 0.01 to 1 µM.

`O=C(NC[C@H](O)CN1CCc2ccccc2C1)c1cn2cc(-c3ccc(Cl)cn3)ccc2n1` [Example 33, (S)-6-(5-chloropyridin-2-yl)-N-(3-(3,4-dihydroisoquinolin-2(1H)-yl)-2-hydroxypropyl)imidazo[1,2-a]pyridine-2-carboxamide]: the pIC50 in experiment [1] was 6.00 to 8.00. Also, in experiment [2], the GI50 lay within 0.01 to 1 µM.

For `Cn1cc(-c2ccc3nc(C(=O)NC[C@H](O)CN4CCc5ccccc5C4)cn3c2)ccc1=O` [Example 34, (S)—N-(3-(3,4-dihydroisoquinolin-2(1H)-yl)-2-hydroxypropyl)-6-(1-methyl-6-oxo-1,6-dihydropyridin-3-yl)imidazo[1,2-a]pyridine-2-carboxamide], the pIC50 in experiment [1] is 6.00 to 8.00. For the same molecule, the GI50 in experiment [2] is 0.01 to 1 µM.

As for `Cn1ccc(-c2ccc3nc(C(=O)NC[C@H](O)CN4CCc5ccccc5C4)cn3c2)cc1=O` [Example 35, (S)—N-(3-(3,4-dihydroisoquinolin-2(1H)-yl)-2-hydroxypropyl)-6-(1-methyl-2-oxo-1,2-dihydropyridin-4-yl)imidazo[1,2-a]pyridine-2-carboxamide], in experiment [1], the pIC50 was 6.00 to 8.00. The 50% growth inhibitory concentration (GI50) in experiment [2] is 0.01 to 1 µM.

As for `CC(C)n1cc(-c2ccc3nc(C(=O)NC[C@H](O)CN4CCc5ccccc5C4)cn3c2)nn1` [Example 37, (S)—N-(3-(3,4-dihydroisoquinolin-2(1H)-yl)-2-hydroxypropyl)-6-(1-isopropyl-1H-1,2,3-triazol-4-yl)imidazo[1,2-a]pyridine-2-carboxamide], the pIC50 in experiment [1] was 6.00 to 8.00. Moreover, the GI50 in experiment [2] lay within 0.01 to 1 µM.

`CNC(=O)c1ccc2nc(C(=O)NC[C@H](O)CN3CCc4ccccc4C3)cn2c1` [Example 38, (S)—N2-(3-(3,4-dihydroisoquinolin-2(1H)-yl)-2-hydroxypropyl)-N6-methylimidazo[1,2-a]pyridine-2,6-dicarboxamide]: in experiment [1], the negative-log IC50 (pIC50) is 6.00 to 8.00. In experiment [2], the GI50 fell in the range of 0.01 to 1 µM.

With `NS(=O)(=O)c1ccc2nc(C(=O)NC[C@H](O)CN3CCc4ccccc4C3)cn2c1` [Example 40, (S)—N-(3-(3,4-dihydroisoquinolin-2(1H)-yl)-2-hydroxypropyl)-6-sulfamoylimidazo[1,2-a]pyridine-2-carboxamide], in experiment [1], the pIC50 was 5.30 to 6.00. Besides, the GI50 in experiment [2] was above 5 µM.

For `Cn1ccc(-c2cnc3nc(C(=O)NC[C@H](O)CN4CCc5ccccc5C4)cn3c2)cc1=O` [Example 44, (S)—N-(3-(3,4-dihydroisoquinolin-2(1H)-yl)-2-hydroxypropyl)-6-(1-methyl-2-oxo-1,2-dihydropyridin-4-yl)imidazo[1,2-a]pyrimidine-2-carboxamide], in experiment [1], the pIC50 is 6.00 to 8.00. The concentration for 50% growth inhibition (GI50) in experiment [2] fell in the range of 0.01 to 1 µM.

Molecule `Cn1cc(-c2ccc3nc(C(=O)NC[C@H](O)CN4CCc5ccccc5C4)cn3n2)cn1` [Example 46, (S)—N-(3-(3,4-dihydroisoquinolin-2(1H)-yl)-2-hydroxypropyl)-6-(1-methyl-1H-pyrazol-4-yl)imidazo[1,2-b]pyridazine-2-carboxamide] gave a pIC50 in experiment [1] of 6.00 to 8.00. Besides, in experiment [2], the GI50 was 0.01 to 1 µM.

`CC(=O)N1CCC(c2ccc3nc(C(=O)NC[C@H](O)CN4CCc5ccccc5C4)cn3n2)CC1` [Example 49, (S)-6-(1-acetylpiperidin-4-yl)-N-(3-(3,4-dihydroisoquinolin-2(1H)-yl)-2-hydroxypropyl)imidazo[1,2-b]pyridazine-2-carboxamide] gave a pIC50 in experiment [1] of 6.00 to 8.00. For the same molecule, in experiment [2], the GI50 is 0.01 to 1 µM.

One may read the pIC50 as −log10 of the IC50, conventionally taken in molar units. Higher therefore signals a low IC50. The GI50 is the concentration giving 50% growth inhibition.
